Measured values reported in US20100298141A1, “SUBSTITUTED PYRIDINE N-OXIDE HERBICIDES” (E. I. DU PONT DE NEMOURS AND COMPANY, priority 2007, published 2010).

Assays:
giant foxtail = experiment: Test A pre-/postemergence greenhouse test; format: in vivo, Setaria faberi; details: for Foxtail, Giant plant response rating: 0 to 100 scale; for Plant response rating, Foxtail, Giant: 0 to 100 scale where 0 is no effect and 100 is complete control
Summary of the method: (§1)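 Visual injury ratings, made relative to untreated controls roughly ten days after treatment, cover both preemergence and postemergence application. Compounds in a surfactant-containing non-phytotoxic solvent were sprayed onto the soil surface after sowing and, simultaneously, onto young plants at the one- to two-leaf stage.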

velvetleaf = experiment: Test A pre-/postemergence greenhouse test; format: in vivo, Abutilon theophrasti; details: for Velvetleaf plant response rating: 0 to 100 scale; for Plant response rating, Velvetleaf: 0 to 100 scale where 0 is no effect and 100 is complete control
Summary of the method: as §1

wheat = experiment: Test C pre-/postemergence test; format: in vivo, Triticum aestivum
Summary of the method: (§2)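 Test chemicals were formulated with surfactant in a non-phytotoxic solvent and sprayed both on freshly planted seeds (preemergence) and on 1- to 4-leaf plants of 2–18 cm (postemergence). Flooded-paddy pots received compound directly into 3 cm of standing water, maintained for the test.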

common ragweed = experiment: Test C pre-/postemergence test; format: in vivo, Ambrosia elation; details: for Plant response rating, Ragweed: scale 0 to 100, 0 no effect, 100 complete control
Summary of the method: as §2

barnyardgrass = experiment: Test C flooded paddy test; format: in vivo, Echinochloa crus-galli; details: Flood
Summary of the method: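 Greenhouse pots flooded to 3 cm above soil at time of treatment received compound via the water, which stayed at that level.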

green foxtail = experiment: Test F preemergence test; format: in vivo, Setaria viridis; details: scale 0 to 100
Summary of the method: (§3)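 Test chemicals were formulated in a non-phytotoxic solvent mixture with surfactant and applied preemergence to planted seeds or postemergence to sugarcane plants. Plants were kept in a greenhouse for 14 to 21 days, then visually evaluated against controls.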

purple nutsedge = experiment: Test F preemergence test; format: in vivo, Cyperus rotundus; details: scale 0 to 100
Summary of the method: as §3

southern sandbur = experiment: Test F preemergence test; format: in vivo, Cenchrus echinatus; details: scale 0 to 100
Summary of the method: as §3

annual bluegrass = experiment: Test F preemergence test; format: in vivo, Poa annua; details: scale 0 to 100
Summary of the method: as §3

field bindweed = experiment: Test F preemergence test; format: in vivo, Convolvulus arvensis; details: scale 0 to 100
Summary of the method: as §3

common mallow = experiment: Test F preemergence test; format: in vivo, Malva sylvestris; details: scale 0 to 100
Summary of the method: as §3

[1] = Postemergence, 125 g ai/ha, 0 is no effect, 100 is complete control
[2] = Postemergence, 500 g ai/ha, 0 is no effect, 100 is complete control
[3] = Preemergence, 125 g ai/ha, 0 no effect, 100 complete control
[4] = 62 g ai/ha, preemergence, scale 0 (no effect) to 100 (complete control)
[5] = preemergence, 125 g ai/ha, scale 0 (no effect) to 100 (complete control)
[6] = 31 g ai/ha, Preemergence, scale 0 to 100
[7] = 31 g ai/ha, scale 0 to 100 (0 no effect, 100 complete control)
[8] = 62 g ai/ha, scale 0 to 100, 0 no effect, 100 complete control, 13 to 15 days
[9] = 125 g ai/ha, scale 0 to 100, 0 no effect, 100 complete control, 13 to 15 days
[10] = 250 g ai/ha, scale 0 to 100 (0 no effect, 100 complete control)
[11] = 62 g ai/ha, Preemergence, scale 0 to 100
[12] = 125 g ai/ha, preemergence, scale 0 (no effect) to 100 (complete control)
[13] = preemergence, 250 g ai/ha, scale 0 (no effect) to 100 (complete control)

Cc1cc[n+]([O-])c(S(=O)(=O)Cc2c(C(F)(F)F)nn(C)c2OC(F)F)c1 [Compound 2]
Foxtail, Giant plant response rating (giant foxtail; [1]): 80
Foxtail, Giant plant response rating (giant foxtail; [2]): 90
Foxtail, Giant plant response rating (giant foxtail; [3]): 100
Plant response rating, Foxtail, Giant (giant foxtail; Preemergence, 500 g ai/ha): 100
Velvetleaf plant response rating (velvetleaf; [1]): 60
Velvetleaf plant response rating (velvetleaf; [2]): 80
Velvetleaf plant response rating (velvetleaf; [3]): 70
Plant response rating, Velvetleaf (velvetleaf; Preemergence, 500 g ai/ha): 90
Wheat plant response rating (wheat; [4]): 0
Plant response rating (0 to 100), Wheat (wheat; Postemergence, 31 g ai/ha): 0
Plant response rating (0 to 100), Wheat (wheat; Postemergence, 62 g ai/ha): 0
Plant response rating, Wheat (wheat; Postemergence, 125 g ai/ha, scale 0 to 100, 0 no effect, 100 complete control): 0
Plant response rating, Wheat (wheat; Postemergence, 250 g ai/ha, scale 0 to 100, 0 no effect, 100 complete control): 0
Plant response rating (0 to 100), Wheat (wheat; Preemergence, 250 g ai/ha): 98
Wheat plant response rating (wheat; [5]): 70
Ragweed plant response rating (common ragweed; [6]): 20
Ragweed plant response rating (common ragweed; [4]): 98
Plant response rating (0 to 100), Ragweed (common ragweed; Postemergence, 31 g ai/ha): 0
Plant response rating (0 to 100), Ragweed (common ragweed; Postemergence, 62 g ai/ha): 0
Plant response rating, Ragweed (common ragweed; Postemergence, 125 g ai/ha): 5
Plant response rating, Ragweed (common ragweed; Postemergence, 250 g ai/ha): 10
Plant response rating (0 to 100), Ragweed (common ragweed; Preemergence, 250 g ai/ha): 100
Ragweed plant response rating (common ragweed; [5]): 100
Plant response rating, Barnyardgrass (barnyardgrass; [7]): 0
Plant response rating, Barnyardgrass (barnyardgrass; [8]): 0
Plant response rating, Barnyardgrass (barnyardgrass; [9]): 55
Plant response rating, Barnyardgrass (barnyardgrass; [10]): 85
Plant response rating, Foxtail, Green (green foxtail; 8 g ai/ha, preemergence): 0
Foxtail, Green plant response rating (green foxtail; 62 g ai/ha, Preemergence): 80
Plant response rating, Foxtail, Green (green foxtail; Preemergence, 16 g ai/ha): 20
Plant response rating, Foxtail, Green (green foxtail; Preemergence, 31 g ai/ha): 65
Plant response rating, Purple Nutsedge (purple nutsedge; 8 g ai/ha, preemergence): 0
Purple Nutsedge plant response rating (purple nutsedge; 62 g ai/ha, Preemergence): 100
Plant response rating, Purple Nutsedge (purple nutsedge; Preemergence, 16 g ai/ha): 15
Plant response rating, Purple Nutsedge (purple nutsedge; Preemergence, 31 g ai/ha): 70
Plant response rating, Sandbur (southern sandbur; 8 g ai/ha, preemergence): 0
Plant response rating, Sandbur (southern sandbur; 16 g ai/ha, preemergence): 0
Sandbur plant response rating (southern sandbur; 62 g ai/ha, Preemergence): 100
Plant response rating, Sandbur (southern sandbur; Preemergence, 31 g ai/ha): 30
Plant response rating, Bluegrass (annual bluegrass; 8 g ai/ha, preemergence): 0
Bluegrass plant response rating (annual bluegrass; 62 g ai/ha, Preemergence): 25
Plant response rating, Bluegrass (annual bluegrass; Preemergence, 16 g ai/ha): 0
Plant response rating, Bluegrass (annual bluegrass; Preemergence, 31 g ai/ha): 15
Plant response rating, Field Bindweed (field bindweed; 8 g ai/ha, preemergence): 0
Field Bindweed plant response rating (field bindweed; 62 g ai/ha, Preemergence): 0
Plant response rating, Field Bindweed (field bindweed; Preemergence, 16 g ai/ha): 0
Plant response rating, Field Bindweed (field bindweed; Preemergence, 31 g ai/ha): 0
Plant response rating, Mallow (common mallow; 8 g ai/ha, preemergence): 0
Mallow plant response rating (common mallow; 62 g ai/ha, Preemergence): 35
Plant response rating, Mallow (common mallow; Preemergence, 16 g ai/ha): 0
Plant response rating, Mallow (common mallow; Preemergence, 31 g ai/ha): 0

Cn1nc(OC(F)F)c(CS(=O)(=O)c2cccc[n+]2[O-])c1C(F)(F)F [Compound 80]
Plant response rating, Foxtail, Giant (giant foxtail; Postemergence, 125 g ai/ha): 70
Foxtail, Giant plant response rating (giant foxtail; [2]): 80
Foxtail, Giant plant response rating (giant foxtail; [3]): 90
Plant response rating, Foxtail, Giant (giant foxtail; Preemergence, 500 g ai/ha): 100
Plant response rating, Velvetleaf (velvetleaf; Postemergence, 125 g ai/ha): 0
Velvetleaf plant response rating (velvetleaf; [2]): 60
Velvetleaf plant response rating (velvetleaf; [3]): 0
Plant response rating, Velvetleaf (velvetleaf; Preemergence, 500 g ai/ha): 70
Wheat plant response rating (wheat; [11]): 45
Wheat plant response rating (wheat; [12]): 65
Plant response rating, Wheat (wheat; Preemergence, 31 g ai/ha, scale 0 to 100 (0 no effect, 100 complete control)): 10
Wheat plant response rating (wheat; [13]): 80
Ragweed plant response rating (common ragweed; [11]): 0
Ragweed plant response rating (common ragweed; [12]): 85
Ragweed plant response rating (common ragweed; [13]): 100
Plant response rating, Barnyardgrass (barnyardgrass; 62 g ai/ha, scale 0 to 100 (0 no effect, 100 complete control)): 0
Plant response rating, Barnyardgrass (barnyardgrass; 250 g ai/ha, scale 0 to 100, 0 no effect, 100 complete control, 13 to 15 days): 60
Plant response rating, Foxtail, Green (green foxtail; 16 g ai/ha, preemergence): 30
Foxtail, Green plant response rating (green foxtail; 62 g ai/ha, Preemergence): 75
Foxtail, Green plant response rating (green foxtail; 125 g ai/ha, preemergence): 95
Plant response rating, Foxtail, Green (green foxtail; Preemergence, 31 g ai/ha): 75
Plant response rating, Purple Nutsedge (purple nutsedge; 16 g ai/ha, preemergence): 0
Purple Nutsedge plant response rating (purple nutsedge; 62 g ai/ha, Preemergence): 50
Purple Nutsedge plant response rating (purple nutsedge; 125 g ai/ha, preemergence): 80
Plant response rating, Sandbur (southern sandbur; 16 g ai/ha, preemergence): 65
Sandbur plant response rating (southern sandbur; 125 g ai/ha, preemergence): 100
Plant response rating, Sandbur (southern sandbur; Preemergence, 62 g ai/ha): 95
Plant response rating, Sandbur (southern sandbur; Preemergence, 31 g ai/ha): 80
Plant response rating, Bluegrass (annual bluegrass; 16 g ai/ha, preemergence): 25
Bluegrass plant response rating (annual bluegrass; 62 g ai/ha, Preemergence): 90
Bluegrass plant response rating (annual bluegrass; 125 g ai/ha, preemergence): 95
Plant response rating, Bluegrass (annual bluegrass; Preemergence, 31 g ai/ha): 25
Plant response rating, Field Bindweed (field bindweed; 16 g ai/ha, preemergence): 0
Field Bindweed plant response rating (field bindweed; 62 g ai/ha, Preemergence): 0
Field Bindweed plant response rating (field bindweed; 125 g ai/ha, preemergence): 0
Plant response rating, Field Bindweed (field bindweed; Preemergence, 31 g ai/ha): 0
Plant response rating, Mallow (common mallow; 16 g ai/ha, preemergence): 0
Mallow plant response rating (common mallow; 62 g ai/ha, Preemergence): 0
Mallow plant response rating (common mallow; 125 g ai/ha, preemergence): 65
Plant response rating, Mallow (common mallow; Preemergence, 31 g ai/ha): 0

Cn1nc(C(F)(F)F)c(C[S+]([O-])c2cccc[n+]2[O-])c1Cl (stereo not shown) [Compound 8]
Foxtail, Giant plant response rating (giant foxtail; [1]): 80
Foxtail, Giant plant response rating (giant foxtail; [2]): 90
Foxtail, Giant plant response rating (giant foxtail; [3]): 100
Plant response rating, Foxtail, Giant (giant foxtail; Preemergence, 500 g ai/ha): 100
Velvetleaf plant response rating (velvetleaf; [1]): 40
Velvetleaf plant response rating (velvetleaf; [2]): 70
Velvetleaf plant response rating (velvetleaf; [3]): 70
Plant response rating, Velvetleaf (velvetleaf; Preemergence, 500 g ai/ha): 80
Wheat plant response rating (wheat; [4]): 30
Plant response rating (0 to 100), Wheat (wheat; Preemergence, 250 g ai/ha): 80
Wheat plant response rating (wheat; [5]): 50
Ragweed plant response rating (common ragweed; [6]): 50
Ragweed plant response rating (common ragweed; [4]): 60
Plant response rating (0 to 100), Ragweed (common ragweed; Preemergence, 250 g ai/ha): 90
Ragweed plant response rating (common ragweed; [5]): 60
Plant response rating, Barnyardgrass (barnyardgrass; [7]): 0
Plant response rating, Barnyardgrass (barnyardgrass; [8]): 0
Plant response rating, Barnyardgrass (barnyardgrass; [9]): 40
Plant response rating, Barnyardgrass (barnyardgrass; [10]): 85
Foxtail, Green plant response rating (green foxtail; 62 g ai/ha, Preemergence): 80
Foxtail, Green plant response rating (green foxtail; 125 g ai/ha, preemergence): 90
Plant response rating, Foxtail, Green (green foxtail; Preemergence, 16 g ai/ha): 0
Plant response rating, Foxtail, Green (green foxtail; Preemergence, 31 g ai/ha): 70
Purple Nutsedge plant response rating (purple nutsedge; 62 g ai/ha, Preemergence): 50
Purple Nutsedge plant response rating (purple nutsedge; 125 g ai/ha, preemergence): 65
Plant response rating, Purple Nutsedge (purple nutsedge; Preemergence, 16 g ai/ha): 0
Plant response rating, Purple Nutsedge (purple nutsedge; Preemergence, 31 g ai/ha): 0
Sandbur plant response rating (southern sandbur; 62 g ai/ha, Preemergence): 80
Sandbur plant response rating (southern sandbur; 125 g ai/ha, preemergence): 100
Plant response rating, Sandbur (southern sandbur; Preemergence, 31 g ai/ha): 10
Bluegrass plant response rating (annual bluegrass; 62 g ai/ha, Preemergence): 0
Bluegrass plant response rating (annual bluegrass; 125 g ai/ha, preemergence): 70
Plant response rating, Bluegrass (annual bluegrass; Preemergence, 16 g ai/ha): 0
Plant response rating, Bluegrass (annual bluegrass; Preemergence, 31 g ai/ha): 0
Field Bindweed plant response rating (field bindweed; 62 g ai/ha, Preemergence): 15
Field Bindweed plant response rating (field bindweed; 125 g ai/ha, preemergence): 70
Plant response rating, Field Bindweed (field bindweed; Preemergence, 16 g ai/ha): 0
Plant response rating, Field Bindweed (field bindweed; Preemergence, 31 g ai/ha): 0
Mallow plant response rating (common mallow; 62 g ai/ha, Preemergence): 60
Mallow plant response rating (common mallow; 125 g ai/ha, preemergence): 80
Plant response rating, Mallow (common mallow; Preemergence, 16 g ai/ha): 30
Plant response rating, Mallow (common mallow; Preemergence, 31 g ai/ha): 30
